Measured values from article PMC7497641, “Neurotropic activity and safety of methylene-cycloalkylacetate (MCA) derivative 3-(3-allyl-2-methylenecyclohexyl) propanoic acid” (ACS Chemical Neuroscience, 2020).

Key:
[1] = target: Adenosine Receptor A2A (ADORA2A) (Homo sapiens, UniProt P29274); assay: SAFETYscan GPCR Calcium Flux; format: cell-based; details: for MCA-13 Max. Responce: 10 μM
[2] = target: T1, Adrenergic Receptor α2A (ADRA2A) (Homo sapiens, UniProt P08913); assay: SAFETYscan GPCR cAMP; format: cell-based
T1 construct: host or cells: cAMP Hunter cell lines

[3] = target: T2, Adrenergic Receptor β1 (ADRB1) (Homo sapiens, UniProt P08588); assay: SAFETYscan GPCR cAMP; format: cell-based; details: read-out: RC50 (the source's name)
T2 construct: host or cells: cAMP Hunter cell lines

[4] = target: Adrenergic Receptor β2 (ADRB2) (Homo sapiens, UniProt P07550); assay: SAFETYscan GPCR cAMP; format: cell-based
[5] = target: Endothelin Receptor Type A (EDNRA) (Homo sapiens, UniProt P25101); assay: SAFETYscan GPCR Calcium Flux; format: cell-based; details: read-out: RC50 (the source's name)
[6] = target: Histamine Receptor H2 (HRH2) (Homo sapiens, UniProt P25021); assay: SAFETYscan GPCR cAMP; format: cell-based; details: read-out: RC50 (the source's name)
[7] = target: T3, 5-Hydroxy tryptamine (Serotonin) Receptor 1A (HTR1A) (Homo sapiens, UniProt P08908); assay: SAFETYscan GPCR cAMP; format: cell-based
T3 construct: host or cells: cAMP Hunter cell lines

[8] = target: T4, 5-Hydroxy tryptamine (Serotonin) Receptor 1B (HTR1B) (Homo sapiens, UniProt P28222); assay: SAFETYscan GPCR cAMP; format: cell-based
T4 construct: host or cells: cAMP Hunter cell lines

[9] = target: Kv7.1/KCNE Potassium voltage-gated channel (KvLQT1/minK) (Homo sapiens, UniProt P51787); assay: SAFETYscan Ion channel assay; format: cell-based; details: read-out: RC50 (the source's name)
[10] = target: T5, N-methyl-D-aspartate (NMDA) Glutamate Receptor 1A/2B (NMDAR (1A/2B)) (Homo sapiens, UniProt Q05586+Q13224); assay: SAFETYscan Ion channel assay; format: cell-based
T5 construct: host or cells: unnamed DiscoverX cell line

[11] = target: T6, cGMP-inhibited cyclic nucleotide phospho-diesterase 3A (PDE3A) (Homo sapiens, UniProt Q14432); assay: SAFETYscan Enzymatic assay; format: biochemical; details: Inhibitor
T6 construct: purchased Signal Chem

[12] = test system: dorsal root ganglion (DRG) sensory neurons; assay: DRG neurite outgrowth assay; format: cell-based, mice; details: HU-MCA-13 5 μM, DRG explants, 5 days
Description: In the second step, we study the effect of HU-MCA-13 on ex-vivo sensory neuronal cultures obtained from dissociated dorsal root ganglia (DRG), a model in which the neurons tend to extend neurites in culture at a high rate, and all neurite outgrowths are axons, as confirmed by immune staining for cytoskeletal-specific proteins.[27] […] By contrast, NGF induced a strong, 3.5-fold increase in neurite outgrowth to a value of 700 μm (Figure 1 and Figure 3B) and a ratio of 8.5 between the area covered by neurites and that covered by the DRG ganglia (Figure 3C). Similarly, HU-MCA-13 induced a 2.5 fold increase in neurite outgrowth to a value of about 500 μm (Figure 1 and Figure 3B) and a ratio of 5.4 between the area covered by neurites and that covered by the DRG ganglia (Figure 3C). […] These experiments extend the neurotropic effect of MCA-13 observed with PC12 dopaminergic neuronal cultures to DRG sensory neurons.
To perform these experiments, 10 DRGs were excised under sterile conditions and transferred to Dulbecco’s Modified Eagle Medium (DMEM) containing 0.25% Type IV collagenase in at 37 °C for 45 min, followed by a 20 min incubation with 0.025% trypsin in DMEM, to digest the associated connective tissue surrounding the neurons. After plating the ganglia onto collagen (50 μg/mL)/laminin mixture (5 μg/mL)-coated tissue culture wells for 24 h, DRG neurons were cultured for additional 1–7 days in fresh Neurobasal A/B27 medium[27] containing either 50 ng/mL NGF (positive control), medium containing 1% DMSO (negative control) or 5 μM MCA-13. The living cultures were photographed and thereafter, the ganglia were immunostained for β tubulin III and again photographed using a fluorescent microscope. A researcher blinded to the experimental conditions performed image analysis, and the neurite outgrowth length (in micrometers) was measured.[50]

[13] = Acute (single-dose) oral toxicity, pathology of major organs; format: in vivo; details: 2000 mg/kg orally
Experimental: Prioritizing compounds with a lower chance of causing toxicity, early in the drug discovery process, would help in the drug development process.[30] With this consideration we conducted acute (single-dose) toxicity study[31] to determine the short-term adverse pathological effects on major mice organs of HU-MCA-13 when administered in mice in a single dose, for a period of 24 h. One group of 5 mice received HU-MCA-13 orally at a dose of 2000 mg/kg, dissolved in a nano-emulsifying drug delivery system[32] in a bolus of 0.4 mL/mouse. After 24 h exposure, the animals were sacrificed, and organs were harvest for pathology analyses. […] This finding was not related to the tested compound and was considered as an accidental finding. This information on the lack of acute toxicity of HU-MCA-13 may predict the safety of this compound in future therapeutic evaluation.
C57Bl/6 mice, 8 weeks old, obtained from Envigo animal breeding center were used in the study. All experiments were approved by the Institutional Animal Care and Use Committee and performed according to OECD guidelines for testing of chemicals.[53] Organs were harvested from mice that were administered with MCA-13 for the detection of possible toxicological lesions in the framework of a safety assessment. […]

Adenosine Receptor A2A (ADORA2A), sequence (P29274 whole entry): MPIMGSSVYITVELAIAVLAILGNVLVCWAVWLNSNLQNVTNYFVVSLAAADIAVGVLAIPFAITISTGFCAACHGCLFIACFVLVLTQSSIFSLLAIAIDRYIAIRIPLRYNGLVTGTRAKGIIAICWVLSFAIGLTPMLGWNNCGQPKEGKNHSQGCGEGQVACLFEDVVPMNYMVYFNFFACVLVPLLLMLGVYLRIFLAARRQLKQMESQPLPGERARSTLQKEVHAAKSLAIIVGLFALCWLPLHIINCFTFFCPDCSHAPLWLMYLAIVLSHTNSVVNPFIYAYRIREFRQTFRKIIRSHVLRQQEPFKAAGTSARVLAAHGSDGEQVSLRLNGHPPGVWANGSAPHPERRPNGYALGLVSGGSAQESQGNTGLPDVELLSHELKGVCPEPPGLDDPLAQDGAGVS
T1 sequence (P08913 whole entry): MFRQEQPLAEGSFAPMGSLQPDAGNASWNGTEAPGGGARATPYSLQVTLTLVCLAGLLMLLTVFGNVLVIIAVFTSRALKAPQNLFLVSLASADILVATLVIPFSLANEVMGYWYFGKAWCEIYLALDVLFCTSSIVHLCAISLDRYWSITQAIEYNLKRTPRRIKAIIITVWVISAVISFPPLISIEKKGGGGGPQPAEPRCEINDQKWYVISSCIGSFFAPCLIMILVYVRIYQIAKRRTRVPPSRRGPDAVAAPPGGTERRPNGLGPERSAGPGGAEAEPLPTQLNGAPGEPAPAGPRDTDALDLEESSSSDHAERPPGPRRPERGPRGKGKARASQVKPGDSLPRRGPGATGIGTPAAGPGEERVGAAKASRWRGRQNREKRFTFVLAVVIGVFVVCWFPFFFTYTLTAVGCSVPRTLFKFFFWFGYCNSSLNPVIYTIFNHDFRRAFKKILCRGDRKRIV
Adrenergic Receptor β2 (ADRB2), sequence (P07550 whole entry): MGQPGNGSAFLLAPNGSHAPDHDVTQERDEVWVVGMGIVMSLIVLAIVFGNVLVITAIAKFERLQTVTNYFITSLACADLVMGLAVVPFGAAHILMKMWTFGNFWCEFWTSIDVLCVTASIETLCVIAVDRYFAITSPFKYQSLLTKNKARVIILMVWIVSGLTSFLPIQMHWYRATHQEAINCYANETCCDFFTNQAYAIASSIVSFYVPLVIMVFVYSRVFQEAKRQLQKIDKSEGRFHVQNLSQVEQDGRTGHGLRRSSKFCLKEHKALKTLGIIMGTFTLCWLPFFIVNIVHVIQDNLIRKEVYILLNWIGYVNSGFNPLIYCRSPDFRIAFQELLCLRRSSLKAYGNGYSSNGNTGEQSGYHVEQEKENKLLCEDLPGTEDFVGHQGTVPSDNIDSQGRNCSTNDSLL
T2 sequence (P08588 whole entry): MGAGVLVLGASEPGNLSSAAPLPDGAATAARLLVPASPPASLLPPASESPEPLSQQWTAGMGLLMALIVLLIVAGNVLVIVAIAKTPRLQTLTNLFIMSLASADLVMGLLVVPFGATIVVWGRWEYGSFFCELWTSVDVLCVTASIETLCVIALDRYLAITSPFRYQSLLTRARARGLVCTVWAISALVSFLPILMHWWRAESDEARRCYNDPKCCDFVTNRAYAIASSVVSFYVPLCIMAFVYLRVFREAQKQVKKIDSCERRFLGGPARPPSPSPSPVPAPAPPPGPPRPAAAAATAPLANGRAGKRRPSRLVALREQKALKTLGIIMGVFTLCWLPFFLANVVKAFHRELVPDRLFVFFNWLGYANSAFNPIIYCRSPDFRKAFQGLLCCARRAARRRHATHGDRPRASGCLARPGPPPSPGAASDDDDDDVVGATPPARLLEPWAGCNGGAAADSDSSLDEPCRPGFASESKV
T3 sequence (P08908 whole entry): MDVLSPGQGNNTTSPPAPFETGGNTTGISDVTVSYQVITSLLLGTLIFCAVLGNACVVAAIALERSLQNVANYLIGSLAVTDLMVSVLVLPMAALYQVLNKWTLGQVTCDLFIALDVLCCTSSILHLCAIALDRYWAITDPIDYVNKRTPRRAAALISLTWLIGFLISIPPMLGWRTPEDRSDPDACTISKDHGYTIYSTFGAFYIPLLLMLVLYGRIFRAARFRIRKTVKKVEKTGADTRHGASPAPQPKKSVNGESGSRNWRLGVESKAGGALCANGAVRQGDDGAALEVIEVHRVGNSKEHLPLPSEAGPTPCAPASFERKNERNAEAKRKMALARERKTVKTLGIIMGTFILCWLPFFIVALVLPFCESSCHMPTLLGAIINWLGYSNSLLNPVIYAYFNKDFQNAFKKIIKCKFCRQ
T6 sequence (Q14432 whole entry): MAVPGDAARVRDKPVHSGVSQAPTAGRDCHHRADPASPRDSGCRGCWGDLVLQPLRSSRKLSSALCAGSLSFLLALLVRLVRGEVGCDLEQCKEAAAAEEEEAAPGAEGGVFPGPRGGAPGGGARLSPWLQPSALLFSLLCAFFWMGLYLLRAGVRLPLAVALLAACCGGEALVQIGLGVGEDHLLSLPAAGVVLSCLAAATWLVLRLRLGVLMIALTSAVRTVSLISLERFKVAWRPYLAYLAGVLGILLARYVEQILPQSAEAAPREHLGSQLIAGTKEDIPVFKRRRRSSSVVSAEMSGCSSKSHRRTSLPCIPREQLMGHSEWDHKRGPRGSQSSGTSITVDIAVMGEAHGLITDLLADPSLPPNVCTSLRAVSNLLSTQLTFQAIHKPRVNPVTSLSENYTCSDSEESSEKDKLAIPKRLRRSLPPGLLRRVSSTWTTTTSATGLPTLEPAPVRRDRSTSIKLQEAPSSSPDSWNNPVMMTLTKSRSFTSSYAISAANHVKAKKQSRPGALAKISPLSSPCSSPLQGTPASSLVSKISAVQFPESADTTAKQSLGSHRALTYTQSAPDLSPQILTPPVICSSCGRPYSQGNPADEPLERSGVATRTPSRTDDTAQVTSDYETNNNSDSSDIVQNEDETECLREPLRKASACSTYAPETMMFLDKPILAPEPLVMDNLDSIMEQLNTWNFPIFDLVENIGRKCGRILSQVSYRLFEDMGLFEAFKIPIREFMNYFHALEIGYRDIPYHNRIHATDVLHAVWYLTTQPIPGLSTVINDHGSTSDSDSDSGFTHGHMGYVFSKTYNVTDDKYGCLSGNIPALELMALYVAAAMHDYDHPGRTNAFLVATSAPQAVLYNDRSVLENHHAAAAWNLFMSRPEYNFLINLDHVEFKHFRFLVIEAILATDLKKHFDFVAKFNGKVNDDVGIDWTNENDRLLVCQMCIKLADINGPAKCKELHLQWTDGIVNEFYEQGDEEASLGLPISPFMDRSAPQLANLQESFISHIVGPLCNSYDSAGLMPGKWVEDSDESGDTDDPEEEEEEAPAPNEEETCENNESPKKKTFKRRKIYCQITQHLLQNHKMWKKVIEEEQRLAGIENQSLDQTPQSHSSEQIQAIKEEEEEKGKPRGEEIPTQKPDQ
T5 sequence (Q13224 27-1484, other chains not shown): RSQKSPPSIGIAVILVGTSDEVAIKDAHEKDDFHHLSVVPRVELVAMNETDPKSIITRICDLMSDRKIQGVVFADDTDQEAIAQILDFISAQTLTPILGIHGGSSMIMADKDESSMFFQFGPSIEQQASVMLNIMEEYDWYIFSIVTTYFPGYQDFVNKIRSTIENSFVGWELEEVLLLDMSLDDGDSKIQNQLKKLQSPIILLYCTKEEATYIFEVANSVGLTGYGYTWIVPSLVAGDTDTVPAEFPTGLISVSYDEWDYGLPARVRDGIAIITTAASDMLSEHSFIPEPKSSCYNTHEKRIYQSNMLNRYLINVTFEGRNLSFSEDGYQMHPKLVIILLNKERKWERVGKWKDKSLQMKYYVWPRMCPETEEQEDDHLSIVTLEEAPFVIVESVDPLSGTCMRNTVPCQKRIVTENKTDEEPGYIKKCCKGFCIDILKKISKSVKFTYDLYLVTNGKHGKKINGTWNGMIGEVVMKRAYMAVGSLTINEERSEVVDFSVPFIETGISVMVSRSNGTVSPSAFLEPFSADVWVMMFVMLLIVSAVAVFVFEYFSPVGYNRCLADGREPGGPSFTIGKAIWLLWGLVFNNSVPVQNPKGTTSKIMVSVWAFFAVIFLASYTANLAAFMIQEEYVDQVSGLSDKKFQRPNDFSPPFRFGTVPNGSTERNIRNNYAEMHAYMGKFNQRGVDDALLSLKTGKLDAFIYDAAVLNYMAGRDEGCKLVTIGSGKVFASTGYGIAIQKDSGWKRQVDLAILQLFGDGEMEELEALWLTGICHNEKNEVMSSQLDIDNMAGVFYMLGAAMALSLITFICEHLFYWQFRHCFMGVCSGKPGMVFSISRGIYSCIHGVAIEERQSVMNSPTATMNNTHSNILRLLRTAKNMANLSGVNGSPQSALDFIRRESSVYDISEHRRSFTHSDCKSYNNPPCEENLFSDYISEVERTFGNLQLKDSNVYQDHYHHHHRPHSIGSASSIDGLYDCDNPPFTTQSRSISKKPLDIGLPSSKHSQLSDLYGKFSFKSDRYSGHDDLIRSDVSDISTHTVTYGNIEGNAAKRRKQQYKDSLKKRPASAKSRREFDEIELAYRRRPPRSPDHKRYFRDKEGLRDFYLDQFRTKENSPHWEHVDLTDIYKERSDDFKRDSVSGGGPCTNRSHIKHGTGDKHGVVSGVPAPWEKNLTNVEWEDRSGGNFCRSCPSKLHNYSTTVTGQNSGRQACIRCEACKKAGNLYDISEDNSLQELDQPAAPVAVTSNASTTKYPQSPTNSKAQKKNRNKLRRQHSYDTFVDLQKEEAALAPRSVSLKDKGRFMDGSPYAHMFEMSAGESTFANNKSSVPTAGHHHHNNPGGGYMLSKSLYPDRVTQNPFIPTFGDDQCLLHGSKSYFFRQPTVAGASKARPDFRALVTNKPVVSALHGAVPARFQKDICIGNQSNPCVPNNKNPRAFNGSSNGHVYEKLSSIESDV

In the case of `C=CCC1CCCC(CCC(=O)O)C1=C` (centres unmarked) [HU-MCA-13, 3-(3-allyl-2-methylenecyclohexyl)propanoic acid], the “MCA-13 Max. Responce” value ([1]; Agonist) is reported as 0%, the “MCA-13 Max. Responce” value ([1]; Antagonist) is reported as 4.09% and the EC50 ([1]; Agonist, read-out: RC50 (the source's name)) is reported as over 10 µM. It also gave an IC50 ([1]; Antagonist, read-out: RC50 (the source's name)) of over 10 µM, an EC50 [2] of over 10 µM and an IC50 [2] of over 10 µM. For the same compound, the EC50 ([3]; Agonist) was over 10 µM, the IC50 ([3]; Antagonist) was over 10 µM and the EC50 [4] was over 10 µM. The IC50 [4] was over 10 µM, the EC50 ([5]; Agonist) was over 10 µM and the IC50 ([5]; Antagonist) was over 10 µM. It also gave an EC50 ([6]; Agonist) of over 10 µM, an IC50 ([6]; Antagonist) of over 10 µM and an EC50 [7] of over 10 µM. For the same compound, the IC50 [7] was over 10 µM, the EC50 [8] was over 10 µM and the IC50 [8] was over 10 µM. The IC50 ([9]; Blocker) was over 10 µM, the EC50 ([9]; Opener) was over 10 µM and the EC50 [10] was over 10 µM. The IC50 [10] was over 10 µM, the inhibition at 10 µM ([11]; 10 μM, read-out: MCA-13 Max. Responce) was 3.21% and the IC50 ([11]; read-out: RC50 (the source's name)) was over 10 µM. The neurite outgrowth length [12] was “about 500 μm”, the “ratio between the area covered by neurites and that covered by the DRG ganglia” value [12] was 5.4 and the “fold increase in neurite outgrowth” value ([12]; versus control medium) was 2.5 fold. The “cytotoxic lesions in all organs (histopathology)” value ([13]; single dose in nano-emulsifying drug delivery system, 24 h) was “no cytotoxic lesions were found” and the “finding in last part of colon, rectum and adjacent anal unhaired skin” value ([13]; in three animals, considered accidental, not related to the tested compound) was “severe purulent, necrotizing inflammation”.
